Data reported in EP1172443A1, “METHOD FOR SCREENING CYSTEINE PROTEASE INHIBITOR” (YAMANOUCHI PHARMACEUTICAL CO. LTD., priority 1999, dated 2000).
Peptide text beside a SMILES is read from it. * marks the point of attachment. Cbz = O=C(OCc1ccccc1)*; CH2F = FC*

Assays:
[1] = molecular target: T1, caspase 3 (Homo sapiens, UniProt P42574); test: Screening method of caspase 3 inhibitor, in the presence of zinc ion (substrate solution containing 3 mM ZnSO4); format: biochemical; conditions: for ratio (enzyme activity (+Zn)/enzyme activity (-Zn)): test compound 100 µM, 25 ng/100 µL human caspase 3, reaction time 15 minutes; for IC50: in the presence of zinc ion
T1 construct: the N-terminal region encoding a protein with a molecular weight of about 17 kDa (p17); C-terminal region encoding a protein with a molecular weight of about 12 kDa (p12); made in house; host or cells: Escherichia coli BL21 (DE3) pLysS, plasmid pET3a
T1 sequence (P42574 29-175 limits assumed): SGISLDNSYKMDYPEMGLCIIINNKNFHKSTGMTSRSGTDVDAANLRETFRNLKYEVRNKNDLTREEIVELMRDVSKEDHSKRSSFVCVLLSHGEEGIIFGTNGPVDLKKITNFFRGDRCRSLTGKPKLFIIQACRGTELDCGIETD
T1 sequence (P42574 176-277 limits assumed): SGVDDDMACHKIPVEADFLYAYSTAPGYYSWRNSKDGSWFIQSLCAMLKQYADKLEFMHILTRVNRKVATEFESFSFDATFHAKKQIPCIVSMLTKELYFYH
Method: (§1) From human brain cDNA, the N-terminal region encoding a protein with a molecular weight of about 17 kDa (p17) and C-terminal region encoding a protein with a molecular weight of about 12 kDa (p12) were amplified by PCR, and then subcloned into an Escherichia coli expression plasmid (pET3a). Using these plasmids, a host bacterium for expressing proteins (BL21 (DE3) pLysS) was transformed. Then, the transformed bacterium was cultured in M9 medium and an active caspase 3 was prepared. Firstly, fungus body recovered from M9 medium was broken by sonication and an inclusion body was recovered by centrifugation. The inclusion body was solubilized under denatured conditions using 3M guanidine solution, and after mixing with p17 polypeptide and p12 polypeptide, diluted with a dialysis solution. The whole was left at room temperature for 1 hour at this situation, and after regeneration, concentrated. After the sample was dialyzed to exchange the buffer solution, insoluble proteins were removed by ultracentrifugation (100,000 X G, 30 minutes). Upon quantitative protein determination, about 30 mg of a protein was recovered.
Solution A comprising composition of 50 mM HEPES, pH 7.5, 10% (w/v) saccharose, and 0.1% (w/v) 3-[(3-cholamidopropyl)dimethylammonio]-1-propane sulfonate (CHAPS) was used as the base of a liquid for enzymatic reaction with adding a test compound, if necessary. […] In a control experiment, caspase 3 mixed with DMSO instead of the test compound was used. Then, 100 µL of 50 µM Ac-Asp-Glu-Val-Asp-MCA (Solution A, Peptide Kenkyusyo, 3171-v) as a substrate solution were added thereto to start reaction. Time course of the decomposition of the substrate were measured on a fluorescent photometer (Corona Denki, MTP-32, excitation wavelength/360 nm, emission waverangeth/450 nm or SLT, fluostar, excitation wavelength/380 nm, emission wavelength/460 nm) and an enzyme activity of the test compound-added group relative to the control was calculated.
(§2) The effects of the test compound at various concentrations on the enzyme activity were measured in a similar manner to the case in the absence of zinc ion as described in the section 1). However, a substrate solution containing 3 mM ZnSO4 was used.
The enzyme activities calculated in the absence of zinc ion (-Zn) and in the presence of zinc ion (+Zn) were compared (enzyme activity (+Zn)/enzyme activity (-Zn)).

[2] = molecular target: T1, caspase 3; test: Examination of caspase 3 inhibitory mode in the presence of zinc (Lineweaver-Burk plots); format: biochemical
Method: (§3) Solution A comprising composition of 50 mM HEPES, pH 7.5, 10% (w/v) saccharose, and 0.1% (w/v) 3-[(3-cholamidopropyl)dimethylammonio]-1-propane sulfonate (CHAPS) was used as the base of a liquid for enzymatic reaction with adding a test compound, if necessary. A 10 ng/100 µL human caspase 3 solution (Solution B: Solution A + 10 mM dithiothreitol (DTT)) and a test compound at different concentrations were mixed and the mixture was left at room temperature for 30 minutes. In a control experiment, caspase 3 mixed with DMSO instead of the test compound was used. Then, 100 µL of 50 µM Ac-Asp-Glu-Val-Asp-MCA (Solution A, Peptide Kenkyusyo, 3171-v) as a substrate solution were added thereto to start reaction. Time course of the decomposition of the substrate were measured on a fluorescent photometer (Corona Denki, MTP-32, excitation wavelength/360 nm, emission waverangeth/450 nm or SLT, fluostar, excitation wavelength/380 nm, emission wavelength/460 nm) and an enzyme activity of the test compound-added group relative to the control was calculated.
as §2
The caspase 3 inhibitory mode of Compound A in the presence of zinc was examined according to the methods 1) and 2) of Example 3. […] The inhibitory mode was analyzed with Lineweaver-Burk plots (double reciprocal plots).
The caspase 3 inhibitory mode of Compound B in the presence of zinc was examined according to the methods 1) and 2) of Example 3. […] The inhibitory mode was analyzed with Lineweaver-Burk plots (double reciprocal plots).
The caspase 3 inhibitory mode of Compound C in the presence of zinc was examined according to the methods 1) and 2) of Example 3. […] The inhibitory mode was analyzed with Lineweaver-Burk plots (double reciprocal plots).

[3] = molecular target: T1, caspase 3; test: Screening method of caspase 3 inhibitor, in the absence of zinc ion (fluorogenic substrate Ac-Asp-Glu-Val-Asp-MCA); format: biochemical; conditions: for inhibition at 100 µM: at 100 µM in the absence of zinc ion, read-out: enzyme activity inhibited
Method: as §1
as §3, with “Then, 100 µL of 50 µM Ac-Asp-Glu-Val-Asp-MCA (Solution A, Peptide Kenkyusyo, 3171-v) as a substrate solution were added thereto to start reaction.” left out

[4] = system: rat hippocampal neuron; test: Apoptosis inhibitory action: suppression of DNA fragmentation induced by Etoposide; format: cell-based
Method: Cultured rat hippocampal neuron was prepared according to a usual method (Neurochem. Int., 31(5), 715-722, 1997). Brain was taken out of a fetus of rat at day 19 of gestation, and hippocampus was picked up under a stereomicroscope. The hippocampus was treated with an enzyme, dispersed by pipetting several times, and cell clusters were removed through a filter to prepare a cell suspension. The cell was cultured at a concentration of 1.2 x 10^5 cells/cm^2 in a 12-well plate coated with polylysine. A "culture medium for neuron" manufactured by Sumitomo Bakelite Co., Ltd. was used as the culture liquid. The neuronal cell at 13 to 16 days of culture was used. Etoposide was employed for inducing apoptosis of the neuronal cell. The induction of DNA fragments was evaluated as a marker of apoptosis.
Cell stimulation was carried out by replacing the cell culture medium with a serum-free medium containing 3 µg/mL Etoposide. After 6 hours from the start of the stimulation, the cell was recovered. TaKaRa ApopLadder Ex kit was used for the extraction of fragmented DNA. The fragmented DNA were subjected to electrophoresis followed by staining with CYBR Green, and the fluorescence intensity of the DNA was measured by means of a scanner manufactured by Molecular Dynamics Co.

| ratio (enzyme activity (+Zn)/enzyme activity (-Zn)) [1] | caspase 3 inhibitory mode [2] | SMILES | IC50 [1] [nM] | inhibition at 100 µM [3] [%] | further results |
| --- | --- | --- | --- | --- | --- |
| 0.37 | substrate-competitive and reversible | c1ccc2[nH]c(Cc3nc4ccccc4[nH]3)nc2c1 [Compound A, bis(1H-benzimidazol-2-yl)methane] |  |  |  |
| 0.44 | substrate-competitive and reversible | ON=C(c1nc2ccccc2[nH]1)c1nc2ccccc2[nH]1 [Compound B, bis(1H-benzimidazol-2-yl)ketone oxime] |  |  |  |
|  | substrate-competitive and reversible | CCCN1C(=O)C2(Oc3c(c(=O)n(CCC)c4ncccc34)S2)C(=O)c2cccnc21 (centres unmarked) [Compound C, 1,5'-dipropylspiro[1,8-naphthyridine-3(2H),2'-[1,3]oxathiolo[4,5-c][1,8]naphthyridine]-2,4,4' (1H,5'H)-trione] | 1200 | 17 | IC50 ([4]; Rattus norvegicus, Hippocampal neuron, 3 µg/mL Etoposide, 6 hours, compound at 10, 25, 50 µM, no zinc added to medium): 17000 nM |
|  |  | CCCN1C(=O)C2(Oc3c(c(=O)n(CCC)c4ccccc34)S2)C(=O)c2ccccc21 (centres unmarked) [Compound D] | 350 | 13 | apoptosis inhibitory action ([4]; at a concentration of 33.3 µM, added together with Etoposide): strong apoptosis inhibitory action |
|  |  | COC(=O)C[C@H](NC(=O)[C@H](C)NC(=O)[C@@H](NC(=O)OCc1ccccc1)C(C)C)C(=O)CF [z-VAD.FMK, z-Val-Ala-Asp(OMe)-CH2F, reference compound] (Cbz-Val-Ala-Asp(OMe)-CH2F) |  |  | effect of zinc ion on the caspase 3 inhibitory activity ([1]; comparison of presence and absence of zinc ion): no remarkable enhancing effect; IC50 ([1]; reaction time 30 minutes): 550 nM; IC50 ([3]; in the absence of zinc ion, reaction time 30 minutes): 510 nM |
